Results from patent US11866443B2, “Method for separating optically active hydroxy cineole derivatives” (BASF Agro B.V., priority 2017, dated 2024).
≈ marks a conversion by molar mass, not a printed value.

Assay: Solubility of racemic and enantiopure hydroxy cineol in different solvents at room temperature
Settings: for Solubility: room temperature
Method: The solubility of racemic hydroxy cineol and enantiopure hydroxy cineol was checked at room temperature in solvents namely, petroleum ether, n-pentane, n-hexane, n-heptane, iso-octane, cyclohexane and toluene.
The solubility at room temperature was determined by adding under stirring small portions of the substance to 5 mL of solvent until it reached saturation and formation of a no more soluble sediment was observed.

## CC(C)C12CCC(C)(O1)C(O)C2 (racemic) [Racemate, hydroxy cineol]
cyclohexane
  Solubility: 380 mg/mL (≈ 2230 mM)
iso-octane
  Solubility: 75 mg/mL (≈ 441 mM)
n-heptane
  solubility of racemate relative to the optical pure hydroxy-cineol: 8 fold
  Solubility: 80 mg/mL (≈ 470 mM)
n-hexane
  Solubility: 100 mg/mL (≈ 587 mM)
n-pentane
  Solubility: 150 mg/mL (≈ 881 mM)
non-polar solvents
  solubility of racemic compound compared with optical pure material: much better soluble
Petroleum ether
  Solubility: 120 mg/mL (≈ 705 mM)
toluene
  Solubility: 800 mg/mL (≈ 4700 mM)
